The values that follow come from patent publication US11472803B2, “7-substituted 1-aryl-naphthyridine-3-carboxylic acid amides and use thereof” (Bayer Aktiengesellschaft, priority 2016, dated 2022).

The target in this test is T1, human M2 receptor (Homo sapiens, UniProt P08172).
T1 construct: expressed in transfected cells; host or cells: CHO-DUKX (CHO-DUKX-M2-GIRK)
T1 sequence (P08172 1-466): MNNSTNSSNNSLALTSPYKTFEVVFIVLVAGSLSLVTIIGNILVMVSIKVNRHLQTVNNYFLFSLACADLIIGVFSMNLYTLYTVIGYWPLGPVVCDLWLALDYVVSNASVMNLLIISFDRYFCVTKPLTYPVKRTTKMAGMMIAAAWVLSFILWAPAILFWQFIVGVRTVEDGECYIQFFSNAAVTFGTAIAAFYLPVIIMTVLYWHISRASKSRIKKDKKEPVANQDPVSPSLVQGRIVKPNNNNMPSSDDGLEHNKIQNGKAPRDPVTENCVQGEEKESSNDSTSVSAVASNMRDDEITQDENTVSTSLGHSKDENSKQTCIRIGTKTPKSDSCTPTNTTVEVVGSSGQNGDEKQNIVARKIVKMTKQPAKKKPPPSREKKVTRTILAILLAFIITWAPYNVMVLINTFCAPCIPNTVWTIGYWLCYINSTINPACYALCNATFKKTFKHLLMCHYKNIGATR
In words: Functional M2-GIRK1/4 activation test: allosteric potency (EC50) and efficiency at EC20 acetylcholine. As to conditions: CHO-DUKX-M2-GIRK cells; for EC50: voltage-sensitive dye, acetylcholine at EC20, in some cases mean of two or more determinations; for Emax: boosting of the acetylcholine effect at EC20 acetylcholine concentration. In kind it is cell-based. A digest of the protocol: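 CHO-DUKX cells stably expressing human M2 and GIRK1/4; membrane potential tracked with voltage-sensitive dye at room temperature. Compound added 50 s before acetylcholine at its EC20, then hyperpolarization read 60 s. EC50 (allosteric potency) and efficiency (boost of EC20 ACh effect) from 4-parameter Hill fit.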

Molecules are shown by their SMILES.

As usually defined, the EC50 is the concentration giving half of the maximal effect. The low end stands for higher potency in that assay, the high end for lower potency in that assay. As a reminder, the Emax is the greatest response seen or fitted, relative to the assay's reference. Compound `O=C(NC12CC(C1)C2)c1cn(-c2c(F)cccc2F)c2nc(N3C[C@@H](O)[C@H](O)C3)c(F)cc2c1=O` [Example 5, N-(Bicyclo[1.1.1]pent-1-yl)-1-(2,6-difluorophenyl)-7-[(3R,4R)-3,4-dihydroxypyrrolidin-1-yl]-6-fluoro-4-oxo-1,4-dihydro-1,8-naphthyridine-3-carboxamide] gave an EC50 of 69 nM and an Emax of 99%.

The compound `COC[C@@H](NC(=O)c1cn(-c2c(F)cc(F)cc2F)c2nc(N3C[C@@H](O)[C@H](O)C3)c(F)cc2c1=O)C(C)C` [Example 17, 7-[(3R,4R)-3,4-dihydroxypyrrolidin-1-yl]-6-fluoro-N-[(2S)-1-methoxy-3-methylbutan-2-yl]-4-oxo-1-(2,4,6-trifluorophenyl)-1,4-dihydro-1,8-naphthyridine-carboxamide] yielded an EC50 of 79.5 nM and an Emax of 83%.

As for `C[C@@H](NC(=O)c1cn(-c2c(F)cc(F)cc2F)c2nc(N3C[C@@H](O)[C@H](O)C3)c(F)cc2c1=O)C1CC1` [Example 19, N-[(1R)-1-cyclopropylethyl]-7-[(3R,4R)-3,4-dihydroxypyrrolidin-1-yl]-6-fluoro-4-oxo-1-(2,4,6-trifluorophenyl)-1,4-dihydro-1,8-naphthyridine-3-carboxamide], the midpoint of the response, the EC50, lay at 16 nM and the maximal effect (Emax) worked out at 98%.

For the compound `C[C@H](NC(=O)c1cn(-c2c(F)cc(F)cc2F)c2nc(N3C[C@@H](O)[C@H](O)C3)c(F)cc2c1=O)C1CC1` [Example 20, N-[(1S)-1-cyclopropylethyl]-7-[(3R,4R)-3,4-dihydroxypyrrolidin-1-yl]-6-fluoro-4-oxo-1-(2,4,6-trifluorophenyl)-1,4-dihydro-1,8-naphthyridine-3-carboxamide], it took 13 nM to reach a half-maximal effect (EC50) and the maximal effect (Emax) was 92%.

For the compound `O=C(NC(C1CC1)C1CC1)c1cn(-c2c(F)cc(F)cc2F)c2nc(N3C[C@@H](O)[C@H](O)C3)c(F)cc2c1=O` [Example 21, N-(dicyclopropylmethyl)-7-[(3R,4R)-3,4-dihydroxypyrrolidin-1-yl]-6-fluoro-4-oxo-1-(2,4,6-trifluorophenyl)-1,4-dihydro-1,8-naphthyridine-3-carboxamide], the EC50 is 3 nM and the Emax is 100%.

For `CCC(COC(F)(F)F)NC(=O)c1cn(-c2c(F)cc(F)cc2F)c2nc(N3C[C@@H](O)[C@H](O)C3)c(F)cc2c1=O` (stereo partly drawn) [Example 26, 7-[(3R,4R)-3,4-dihydroxypyrrolidin-1-yl]-6-fluoro-4-oxo-N-[(2)-1-(trifluoromethoxy)butan-2-yl]-1-(2,4,6-trifluorophenyl)-1,4-dihydro-1,8-naphthyridine-3-carboxamide], the EC50 amounted to 4.03 nM and the Emax came out at 100%.

For `CC[C@H](NC(=O)c1cn(-c2c(F)cc(F)cc2F)c2nc(N3C[C@@H](O)[C@H](OC(C)=O)C3)c(F)cc2c1=O)C(F)(F)F` [Example 35, (3R,4R)-1-[3-Fluoro-5-oxo-6-{[(2S)-1,1,1-trifluorobutan-2-yl]carbamoyl}-8-(2,4,6-trifluoro-phenyl)-5,8-dihydro-1,8-naphthyridin-2-yl]-4-hydroxypyrrolidin-3-yl acetate], the concentration giving a half-maximal response (EC50) was determined as 2.9 nM and the Emax was 100%.

In the case of `CC[C@H](NC(=O)c1cn(-c2c(F)cc(F)cc2F)c2nc(N3C[C@@H](O)[C@H](O)C3)c(Cl)cc2c1=O)C(F)(F)F` [Example 38, 6-chloro-7-[(3R,4R)-3,4-dihydroxypyrrolidin-1-yl]-4-oxo-N-[(2S)-1,1,1-trifluorobutan-2-yl]-1-(2,4,6-trifluorophenyl)-1,4-dihydro-1,8-naphthyridine-3-carboxamide], the response was half-maximal at 10.1 nM (EC50) and the maximum response (Emax) was found to be 100%.

Turning to `CC[C@H](NC(=O)c1cn(-c2c(F)cc(F)cc2Cl)c2nc(N3C[C@@H](O)[C@H](O)C3)c(F)cc2c1=O)C(F)(F)F` [Example 40, 1-(2-chloro-4,6-difluorophenyl)-7-[(3R,4R)-3,4-dihydroxypyrrolidin-1-yl]-6-fluoro-4-oxo-N-[(2S)-1,1,1-trifluorobutan-2-yl]-1,4-dihydro-1,8-naphthyridine-3-carboxamide], a half-maximal effect (EC50) was put at 2.3 nM and the Emax was determined as 98%.

The compound `O=C(N[C@@H](C1CC1)C(F)(F)F)c1cn(-c2c(F)cc(F)cc2Cl)c2nc(N3C[C@@H](O)[C@H](O)C3)c(F)cc2c1=O` [Example 42, 1-(2-chloro-4,6-difluorophenyl)-N-[(1S)-1-cyclopropyl-2,2,2-trifluoroethyl]-7-[(3R,4R)-3,4-dihydroxypyrrolidin-1-yl]-6-fluoro-4-oxo-1,4-dihydro-1,8-naphthyridine-3-carboxamide] gave an EC50 of 4 nM and an Emax of 100%.

Compound `C[C@H](NC(=O)c1cn(-c2c(F)cc(F)cc2Cl)c2nc(N3C[C@@H](O)[C@H](O)C3)c(F)cc2c1=O)C1CC1` [Example 43, 1-(2-chloro-4,6-difluorophenyl)-N-[(1S)-1-cyclopropylethyl]-7-[(3R,4R)-3,4-dihydroxypyrrolidin-1-yl]-6-fluoro-4-oxo-1,4-dihydro-1,8-naphthyridine-3-carboxamide] returned a 50% effective concentration (EC50) of 7.5 nM and an Emax of 100%.

`C[C@@H](NC(=O)c1cn(-c2c(F)cc(F)cc2Cl)c2nc(N3C[C@@H](O)[C@H](O)C3)c(F)cc2c1=O)C1CC1` [Example 44, 1-(2-chloro-4,6-difluorophenyl)-N-[(1R)-1-cyclopropylethyl]-7-[(3R,4R)-3,4-dihydroxypyrrolidin-1-yl]-6-fluoro-4-oxo-1,4-dihydro-1,8-naphthyridine-3-carboxamide] came in with an EC50 of 12 nM and a maximal response (Emax) of 100%.

For the compound `CN(CCO)c1nc2c(cc1F)c(=O)c(C(=O)N[C@@H](C1CC1)C(F)(F)F)cn2-c1c(F)cc(F)cc1F` [Example 55, N-[(1S)-1-Cyclopropyl-2,2,2-trifluoroethyl]-6-fluoro-7-[(2-hydroxyethyl)(methyl)amino]-4-oxo-1-(2,4,6-trifluorophenyl)-1,4-dihydro-1,8-naphthyridine-3-carboxamide], the response was half-maximal at 25 nM (EC50) and the maximal response (Emax) stood at 96%.

Compound `CC1(O)CN(c2nc3c(cc2F)c(=O)c(C(=O)NC(C2CC2)C2CC2)cn3-c2ncc(F)cc2F)C1` [Example 56, N-(Dicyclopropylmethyl)-1-(3,5-difluoropyridin-2-yl)-6-fluoro-7-(3-hydroxy-3-methylazetidin-1-yl)-4-oxo-1,4-dihydro-1,8-naphthyridine-3-carboxamide] yielded a half-maximal effective concentration (EC50) of 35 nM and an Emax of 100%.

`CC[C@H](NC(=O)c1cn(-c2c(F)cc(F)cc2F)c2nc(N3CCCC[C@H]3CO)c(F)cc2c1=O)C(F)(F)F` [Example 57, 6-Fluoro-7-[(2S)-2-(hydroxymethyl)piperidin-1-yl]-4-oxo-N-[(2S)-1,1,1-trifluorobutan-2-yl]-1-(2,4,6-trifluorophenyl)-1,4-dihydro-1,8-naphthyridine-3-carboxamide] displayed a concentration for a half-maximal effect (EC50) of 78.5 nM and an Emax of 89%.

`O=C(N[C@@H](C1CC1)C(F)(F)F)c1cn(-c2c(F)cc(F)cc2F)c2nc(N3CCCC[C@H]3CO)c(F)cc2c1=O` [Example 58, N-[(1S)-1-Cyclopropyl-2,2,2-trifluoroethyl]-6-fluoro-7-[(2S)-2-(hydroxymethyl)piperidin-1-yl]-4-oxo-1-(2,4,6-trifluorophenyl)-1,4-dihydro-1,8-naphthyridine-3-carboxamide] registered an EC50 of 104 nM and an Emax of 90%.

In the case of `O=C(N[C@@H](C1CC1)C(F)(F)F)c1cn(-c2c(F)cc(F)cc2F)c2nc(N3C[C@@H](O)CC3=O)c(F)cc2c1=O` [Example 59, N-[(1S)-1-Cyclopropyl-2,2,2-trifluoroethyl]-6-fluoro-7-[(4S)-4-hydroxy-2-oxopyrrolidin-1-yl]-4-oxo-1-(2,4,6-trifluorophenyl)-1,4-dihydro-1,8-naphthyridine-3-carboxamide], it took 91.5 nM to reach a half-maximal effect (EC50) and the maximum response (Emax) was 97%.

In the case of `CN(C)c1nc2c(cc1F)c(=O)c(C(=O)NC(C)(C)C)cn2-c1c(F)cc(F)cc1F` [Example 60, N-tert-Butyl-7-(dimethylamino)-6-fluoro-4-oxo-1-(2,4,6-trifluorophenyl)-1,4-dihydro-1,8-naphthyridine-3-carboxamide], the EC50 stood at 3.6 nM and the maximal response (Emax) was determined as 100%.

As for `CCC(C)(C)NC(=O)c1cn(-c2c(F)cc(F)cc2F)c2nc(N(C)C)c(F)cc2c1=O` [Example 61, 7-(Dimethylamino)-6-fluoro-N-(2-methylbutan-2-yl)-4-oxo-1-(2,4,6-trifluorophenyl)-1,4-dihydro-1,8-naphthyridine-3-carboxamide], the EC50 was found to be 2.2 nM and the Emax was 94%.

As to `CN(C)c1nc2c(cc1F)c(=O)c(C(=O)NC(C)(C)C(F)(F)F)cn2-c1c(F)cc(F)cc1F` [Example 62, 7-(Dimethylamino)-6-fluoro-4-oxo-N-(1,1,1-trifluoro-2-methylpropan-2-yl)-1-(2,4,6-trifluoro-phenyl)-1,4-dihydro-1,8-naphthyridine-3-carboxamide], the EC50 worked out at 4.1 nM and the maximal response (Emax) was found to be 88%.
